Experimental data as given in paper PMC8333425, “Discovery of a dual Ras and ARF6 inhibitor from a GPCR endocytosis screen” (Nature Communications, 2021).
Values joined by “and” are separate entries in the source; they are usually repeats but may differ in a detail not shown here. Identical values can stand only once. “Also recorded” adds a separate entry of the source.

Legend:
[1] = tested on: H-Ras; design: method as in PMID 27265506; conditions: cited from earlier work
[2] = tested on: ERK1/2 activation by AT1R; experiment: Western blot of AT1R-mediated ERK1/2 phosphorylation; assay type: cell-based, human; conditions: 50 μM
Method: HEK293SL cells (10^5 cells per well) were seeded in a poly-L-lysine-coated six-well plate and transiently transfected with 3 μg Flag-AT1R, HA-B2R or HA-β2AR and/or 500 ng Flag-MEK1-WT, Flag-MEK1-DD, Flag-BRAF-WT, Flag-BRAF-V600E, Flag-K-Ras-WT, Flag-K-Ras-G12V, HA-ARF6-WT, or HA-ARF6-T27N. Gαq/11 KO and βarr1/2 KO cells were seeded onto 100 mm dishes at a density of 10^6 cells per dish. Next day, cells were transfected with 3 μg AT1R alone or along with 500 ng of β-arrestin2 using PEI. After 18 h of transfection, cells were detached and re-seeded onto poly-L-lysine coated 12-well plates (~1.5–2 × 10^5cells/well) for subsequent experiments. Forty-eight hours post transfection, in a 37 °C water bath, cells were serum-starved for 30 min, pretreated with DMSO (0.1%) or compound 21/Rasarfin (50 µM or at indicated concentrations) for 30 min, then stimulated or not with the indicated ligand [AngII (1 µM), BK (1 µM), Iso (10 µM) or EGF (100 ng/ml)] at indicated times. Cells were put on ice, washed with PBS and solubilized in 2x laemmli buffer (250 mM Tris–HCl pH 6.8, 2% SDS (w/v), 10% glycerol (v/v), 0.01% bromophenol blue (w/v) and 5% β-mercaptoethanol (v/v)) by heating at 65 °C for 15 min. Lysates were resolved on 10 or 14% SDS-PAGE, transferred to nitrocellulose membranes and immunoblotted for p-ERK1/2, ERK1/2, p-Akt, Akt, HA, Myc, β-actin or FLAG. ImageLab 5.2 software was used to quantify the digital blots as fold of the phosphorylated protein over total protein, which were then normalized as indicated in the figure legends. Uncropped immunoblots are provided in the Source Data file.

[3] = biological target: H-Ras (Homo sapiens, UniProt P01112); experiment: In vitro mant-GTP exchange assay, purified H-Ras with purified SOS1; assay type: biochemical; design: the cDNA of H-Ras (full length) was obtained by RT-PCR of HEK293SL; GST (N); host or cells: E. coli BL21; conditions: 50 μM
Method: Ras activity was assessed in a 384-well black bottom plate using the mant-GTP exchange factor assay that measures the uptake of the fluorescent nucleotide analog N-methylanthraniloyl-GTP (mant-GTP) into GTPases. For Ras activation, 2X exchange buffer, 1.66 μg of purified pGEX-6P-1-H-Ras or pGEX-6P-1-K-Ras-WT or pGEX-6P-1-K-Ras-Y32A were added per well in presence of DMSO, different concentrations of Rasarfin (as indicated) or 50 µM of compounds 21.4, 21.7, or 21.8. Using the Infinite 200 Pro plate reader (Tecan) with filters set at 360 nm and 440 nm for detecting the excitation and emissions, respectively, and temperature set at 20 °C, 5 readings were recorded every 5 s before the addition of either H2O, 40 mM EDTA or 0.66 μg purified SOS1. The fluorescence of mant-GTP uptake was measured every 30 sec for 30 min and quantified as the delta relative fluorescence units (RFU), which was calculated as the RFU post-addition minus the 5 averaged RFU pre-addition, per condition.

[4] = tested on: AT1R; experiment: Endosomal BRET assay of AngII-mediated AT1R internalization (AT1R-RlucII / Endo-rGFP; HTS, validation, concentration-response); assay type: cell-based, human; conditions: 50 μM
Description: We performed a HT campaign in HEK293 cells using the bystander endosomal BRET sensor, which consists of a Renilla luciferase (RlucII)-tagged AT1R and an acceptor renilla GFP (rGFP) anchored to endosomes through an Endofin-FYVE (Endo-rGFP) domain[12]. AngII-mediated trafficking of AT1R to endosomes was screened against commercial libraries of ~115,000 small molecules (Fig. 1a and Supplementary Data 1). Because our assay is based on luminescence and fluorescence, we excluded 6610 compounds that quenched more than 50% of the luciferase or GFP signals. After excluding 5 AT1R antagonists, we conserved hit compounds blocking by more than 40%, as well as those potentiating by more than 100% receptor internalization. From this collection of 943 compounds, a second validation on AT1R internalization was performed using the same BRET assay, as well as on the agonist-mediated B2R internalization, this time using B2R-RlucII and Endo-rGFP. Only compounds that were revalidated on AT1R and affected B2R endocytosis were kept, which included forty hits (20 potentiators and 20 inhibitors) (Fig. 1b and Supplementary Data 2). We focused on inhibitors that were commercially available at the beginning of the project and tested their cell toxicity by microscopy, looking at cells expressing B2R tagged with YFP, which highlights cell contours and potential morphological changes, such as rounding up of cells following treatment with 50 μM of the compounds that may have indicated cell death. None of the inhibitors tested caused abnormal cell morphological changes when cells were treated with compounds as compared to DMSO-treated cells. Inhibitors were also assessed in terms of structure novelty, derivatization potential, and commercial availability of analogs (within 95–98% similarity from Tanimoto metric, Sci-Finder, https://scifinder-n.cas.org), for structure-activity relationship studies (SAR). They were scored 1–5, from best to worst. We excluded compounds with potential nucleophilic reactivity (e.g., Michael addition: compounds 7, 26, and 27), those reported to have biological activities (compounds 8, 20, 25, 30, and 35) and/or showing autofluorescence (compound 26). Compound 19 ranked high, but only had one other molecule with a similar structure available. Although other molecules could be interesting in their own rights as endocytosis inhibitors (e.g., compounds 1, 9, 11, 12, 13, 24, 31, and 37), we focused on compound 21 (Fig. 1c) because not only did it rank high in our analysis, but it was also the only compound with substantially more similar analogs commercially available at the time of these investigations. In the screen and the follow-up validation assay, 21 inhibited more than 50% AT1R internalization and more than 65% B2R internalization (Supplementary Data 2). […] Because β-arrestins are critically involved in GPCR endocytosis and trafficking in cells, we assessed 21’s effects on β-arrestins’ recruitment to AT1R and B2R at the PM using a BRET assay, as well as their trafficking into endosomes by microscopy.
The chemical library used for initial screening was from Chembridge DiverSet™ (60,000 compounds), Maybridge HitFinder™ (16,000 compounds), Maybridge (selected, 16,000 compounds), SPECS (selected, 16000 compounds), Microsource Discovery Spectrum (2000 compounds), Biomol (natural products, 500 compounds), Prestwick (commercialized products, 1120 compounds), SIGMA LopacTM (1280 compounds) and internal collection (synthesized at Université de Montréal-IRIC, ~4000 compounds). Compounds were all assigned an Université de Montréal number (UM) for internal use. Screen was performed at IRIC HTS facility. KINOMEscan™ profiling was serviced by Eurofin/DiscoverX (San Diego, USA).
HEK293SL cells were seeded at a density of 7.5 × 10^5 cells per 100-mm dish and 24 h later, transiently transfected as such. […]

[5] = tested on: Ras; design: method as in PMID 22431598; conditions: cited from earlier work
[6] = tested on: MDA-MB-231 cells; experiment: Cell proliferation assay (IncuCyte confluence), MDA-MB-231; assay type: cell-based, human; conditions: 10 µM
Method: Cell proliferation was measured by a label-free, non-invasive cellular confluence assay using IncuCyte Live-Cell Imaging Systems (Essen Bioscience, Ann Arbor, MI, USA). MDA-MB-231 breast cancer and A549 lung carcinomas cells (1500 cells in 150 μl/well) were seeded overnight on a clear 96-well plate. Twenty-four hours later, the cells were treated with 0.1% DMSO, or different concentrations of Rasarfin (as indicated), or 10 µM of 21.4 or 21.8 for 96 h total. The plate was placed in an XL-3 incubation chamber maintained at 37 °C and the cells were photographed using a ×4 objective, every 3 h for 4 days. Cell confluence was calculated using IncuCyte S3 software (2019A) and cell proliferation was expressed as an increase in the percentage of confluence. Experiments were done in triplicate and repeated three times.

[7] = tested on: MDA-MB-231 cells; experiment: Cell viability assay (MTT), MDA-MB-231; assay type: cell-based, human; conditions: for cell viability (MTT signal): S_Fig12f, listed as Comp 21.4
Method: MDA-MB-231 breast cancer cells and A549 lung carcinomas (1500 cells in 150 μl/well) were seeded overnight on a clear 96-well plate. Twenty-four hours later, the cells were treated with 0.1% DMSO, or different concentrations of Rasarfin (as indicated), or 10 µM of 21.4, 21.8 (MDA-MB-231 breast cancer cells) or Doxorubicin for the indicated times at 37 °C. At each time point, 10 μl of 5 mg/ml MTT was added to each well and the plates were incubated for an additional 4 h at 37 °C. The absorbance at 590 nm was measured by plate reader. Experiments were done in triplicate and repeated three times.

H-Ras (Homo sapiens, UniProt P01112), sequence (P01112 whole entry): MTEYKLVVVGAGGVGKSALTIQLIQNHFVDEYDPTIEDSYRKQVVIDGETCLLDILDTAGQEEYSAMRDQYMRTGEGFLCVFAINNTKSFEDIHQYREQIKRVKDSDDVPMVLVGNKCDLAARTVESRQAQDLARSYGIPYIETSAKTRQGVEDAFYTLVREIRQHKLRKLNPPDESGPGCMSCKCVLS

Row | Compound | inhibition of AT1R-mediated ERK1/2 (MAPK) activation (Fig. 8b) [2] | Ras exchange activity, mant-GTP loading into H-Ras with SOS1 (Fig. 8c) [3] | inhibition of AT1R internalization into endosomes (Fig. 8a) [4] | further results
1 | NAV-2729 |  |  |  | block of H-Ras [1]: inefficacious to block H-Ras
2 | CCC(=O)N1CCN(c2ccc(NC(=O)c3cccs3)cc2Cl)CC1 [Compound 21.7] | lost their ability to inhibit MAPK | had no effect | loss of compounds’ efficacy to inhibit AT1R internalization | 
3 | Cc1[nH]c2cc(Cl)cc(Cl)c2c1CCN [DCAI, 4,6-dichloro-2-methyl-3-aminoethyl-indole] |  |  |  | SOS binding to Ras and nucleotide exchange [5]: blocks SOS binding to Ras but only inhibits the nucleotide exchange catalyzed by SOS
4 | CC(C)C(=O)N1CCN(c2ccc(NC(=O)c3cc4ccccc4o3)cc2)CC1 [Compound 21.4] | lacks Ras and MAPK inhibitory activities | lacks Ras and MAPK inhibitory activities; also recorded: had no effect | did not inhibit AT1R internalization | MDA-MB-231 cell proliferation (confluency) [6]: only 21.8, which efficiently inhibits MAPK as well as Rasarfin, inhibited cell proliferation; metabolic activity of MDA-MB-231 cells (MTT) ([7]; 10 µM): moderately decreasing the metabolic activity of cancer cells; cell viability (MTT signal) ([7]; 24h): 0.2634 and 0.244 and 0.2; cell viability (MTT signal) ([7]; 48h): 0.339 and 0.3215 and 0.2045
